Measurements from publication PMC4890124, “Antimicrobial activity, improved cell selectivity and mode of action of short PMAP-36-derived peptides against bacteria and Candida” (Scientific Reports, 2016).
≈ marks a conversion by molar mass, not a printed value. Peptide text beside a SMILES is read from it.

What was measured:
[1] = tested on: Bacillus subtilis CMCC 63501; type: cell-based; details: CMCC 63501, 18 h
Method: (§1) The peptide antibacterial activity was determined against both gram-positive and gram-negative bacteria strains, including Escherichia coli ATCC 25922, Escherichia coli UB1005, Salmonella enterica serovar typhimurium C77-31, Staphylococcus aureus ATCC 29213, Staphylococcus aureus ATCC 25923, Bacillus subtilis CMCC 63501, and Staphylococcus epidermidis ATCC 12228. Clinically isolated Escherichia coli EC183 was provided by the 4th Affiliated Hospital of Harbin Medical University. MIC of the peptides was measured using a modified version of the National Committee for Clinical Laboratory Standards (NCCLS) broth microdilution method as described previously. The bacterial strains were inoculated and grown to mid-log phase in fresh Mueller-Hinton broth (MHB) at 37 °C. Bacterial inoculum suspensions were prepared at a final concentration of approximately 1 × 10^5 CFU/ml. Peptides were 2-fold serially diluted to make different concentrations, from 0.5 to 256 μM. Equal volumes of inoculum suspensions were then added to each well of a sterile 96-well plate with different concentrations of peptides, and the plate was incubated for 18 h at 37 °C. Broth with or without bacteria was employed as the positive control or the negative control, respectively. MIC was defined as the lowest concentration of peptides that prevented visible turbidity by visual inspection. […] After overnight incubation at 37 °C, MBC was defined as the lowest concentration of peptides that killed at least 99.9% of the initial inoculums. Experiments were performed in triplicate with three biological replicates.

[2] = tested on: Clinically isolated Escherichia coli EC183; type: cell-based; details: Clinically isolated EC183, 18 h
Method: as §1

[3] = tested on: Escherichia coli ATCC 25922; type: cell-based; details: ATCC 25922, 18 h
Method: as §1

Escherichia coli UB1005 = type: cell-based; details: UB1005, 18 h
Method: as §1

[4] = tested on: Salmonella enterica serovar typhimurium C77-31; type: cell-based; details: three independent experiments; for MIC S. typhi C77-31: broth microdilution, MHB, ~1 × 10^5 CFU/ml, 18 h at 37 °C, visual; for MBC S. typhi C77-31: lowest concentration killing at least 99.9% of initial inoculum
Method: as §1

[5] = tested on: Staphylococcus aureus ATCC 25923; type: cell-based; details: ATCC 25923, 18 h
Method: as §1

[6] = tested on: Staphylococcus aureus ATCC 29213; type: cell-based; details: ATCC 29213, 18 h
Method: as §1

[7] = tested on: Staphylococcus epidermidis ATCC 12228; type: cell-based; details: ATCC 12228, 18 h
Method: as §1

[8] = tested on: Candida albicans CGMCC 2.2086; assay: microbe, parasite or virus in culture; type: cell-based; details: CGMCC 2.2086, 48 h
From the text: (§2) The antifungal activities were monitored in RPMI-1640 broth medium by a 2-fold microdilution assay according to the Clinical and Laboratory Standards Institute (CLSI) methods. The Candida albicans CGMCC 2.2086, Candida tropicalis CGMCC 2.1975, and Candida krusei CGMCC 2.1857 fungal strains were purchased from the China General Microbiological Culture Collection Center (CGMCC, Beijing, China). Clinically isolated Candida albicans CA2761 was provided by the 4th Affiliated Hospital of Harbin Medical University. Briefly, fungal strains were cultured on YPD agar plates (1% peptone, 0.5% yeast extract, 1% glucose and 2% agar) at 28 °C to prepare Candida suspensions with a turbidity of a 0.5 McFarland standard. A total of 50 μl inoculum cell suspension diluted in RPMI-1640 broth medium was added to an equal volume of peptide solution to achieve a final peptide concentrations ranging from 0.25 μM to 128 μM in a 96-well plate. Pure broth alone or with inoculum suspensions was used as the negative control or the positive control, respectively. The plate was incubated at 28 °C for 48 h. MIC was considered the lowest concentration at which no fungal growth was visually observed under experimental conditions. […] After 48 h incubation at 28 °C, MFC was defined as the lowest concentration of peptides that killed at least 99.9% of the initial inoculums. Experiments were performed in triplicate with three biological replicates.

[9] = tested on: Candida krusei CGMCC 2.1857; assay: microbe, parasite or virus in culture; type: cell-based; details: CGMCC 2.1857, 48 h; for MFC: read-out: MFC C. krusei 2.1857; for MIC: read-out: MIC C. krusei 2.1857
From the text: as §2

[10] = tested on: Candida tropicalis CGMCC 2.1975; assay: microbe, parasite or virus in culture; type: cell-based; details: CGMCC 2.1975, 48 h; for MFC: read-out: MFC C. tropicalis 2.1975; for MIC: read-out: MIC C. tropicalis 2.1975
From the text: as §2

[11] = tested on: C. albicans CA276 (clinical isolate); assay: microbe, parasite or virus in culture; type: cell-based, Candida albicans; details: CA276 (clinical isolate, 48 h)
From the text: as §2

Row | SMILES | MBC B. subtilis 63501 [1] [µM] | MIC B. subtilis 63501 [1] [µM] | MBC E. coli EC183 [2] [µM] | MIC E. coli EC183 [2] [µM] | MBC E. coli 25922 [3] [µM] | MIC E. coli 25922 [3] [µM] | MBC E. coli 1005 (Escherichia coli UB1005) [µM] | MIC E. coli 1005 (Escherichia coli UB1005) [µM] | MIC S. typhi C77-31 [4] [µM] | MBC S. typhi C77-31 [4] [µM] | MBC S. aureus 25923 [5] [µM] | MIC S. aureus 25923 [5] [µM] | MBC S. aureus 29213 [6] [µM] | MIC S. aureus 29213 [6] [µM] | MBC S. epidermidis 12228 [7] [µM] | MIC S. epidermidis 12228 [7] [µM] | MFC [9] [µM] | MIC [9] [µM] | MFC [10] [µM] | MIC [10] [µM] | also measured
1 | CC[C@H](C)[C@H](NC(=O)[C@H](Cc1c[nH]c2ccccc12)NC(=O)[C@H](CCCCN)NC(=O)[C@H](CC(C)C)NC(=O)[C@@H](NC(=O)[C@H](CCCCN)NC(=O)CNC(=O)[C@@H](NC(=O)[C@H](CCCCN)NC(=O)[C@H](CCCCN)NC(=O)[C@H](CC(C)C)NC(=O)[C@H](CCCNC(=N)N)NC(=O)[C@H](CCCCN)NC(=O)[C@H](CCCNC(=N)N)NC(=O)[C@@H](N)[C@@H](C)O)[C@@H](C)CC)C(C)C)C(N)=O [TI15] (H-TRKRLKKIGKVLKWI-NH2) | 4 (≈ 7.47 µg/mL) | 2 (≈ 3.73 µg/mL) | 4 (≈ 7.47 µg/mL) | 2 (≈ 3.73 µg/mL) | 16 (≈ 29.9 µg/mL) | 8 (≈ 14.9 µg/mL) | 8 (≈ 14.9 µg/mL) | 4 (≈ 7.47 µg/mL) | 8 (≈ 14.9 µg/mL) | 32 (≈ 59.7 µg/mL) | 128 (≈ 239 µg/mL) | 32 (≈ 59.7 µg/mL) | 128 (≈ 239 µg/mL) | 32 (≈ 59.7 µg/mL) | 64 (≈ 119 µg/mL) | 32 (≈ 59.7 µg/mL) | 16 (≈ 29.9 µg/mL) | 8 (≈ 14.9 µg/mL) | 4 (≈ 7.47 µg/mL) | 2 (≈ 3.73 µg/mL) | MFC C. albicans 2.2086 [8]: 64 µM (≈ 119 µg/mL); MIC C. albicans 2.2086 [8]: 64 µM (≈ 119 µg/mL); MFC C. albicans CA276 [11]: 128 µM (≈ 239 µg/mL); MIC C. albicans CA276 [11]: 128 µM (≈ 239 µg/mL)
2 | CC[C@H](C)[C@H](NC(=O)[C@H](Cc1c[nH]c2ccccc12)NC(=O)[C@H](CCCCN)NC(=O)[C@H](CC(C)C)NC(=O)[C@@H](NC(=O)[C@H](CCCCN)NC(=O)CNC(=O)[C@@H](NC(=O)[C@H](CCCCN)NC(=O)[C@H](CCCCN)NC(=O)[C@H](CC(C)C)NC(=O)[C@H](CCCNC(=N)N)NC(=O)[C@H](CCCCN)NC(=O)[C@H](CCCNC(=N)N)NC(=O)[C@@H](NC(=O)[C@H](CCCCN)NC(=O)[C@H](CCCCN)NC(=O)[C@@H](N)CCCNC(=N)N)[C@@H](C)O)[C@@H](C)CC)C(C)C)C(N)=O [RI18] (H-RKKTRKRLKKIGKVLKWI-NH2) | 2 (≈ 4.56 µg/mL) | 1 (≈ 2.28 µg/mL) | 2 (≈ 4.56 µg/mL) | 1 (≈ 2.28 µg/mL) | 4 (≈ 9.12 µg/mL) | 2 (≈ 4.56 µg/mL) | 4 (≈ 9.12 µg/mL) | 2 (≈ 4.56 µg/mL) | 2 (≈ 4.56 µg/mL) | 4 (≈ 9.12 µg/mL) | 8 (≈ 18.2 µg/mL) | 8 (≈ 18.2 µg/mL) | 4 (≈ 9.12 µg/mL) | 4 (≈ 9.12 µg/mL) | 16 (≈ 36.5 µg/mL) | 4 (≈ 9.12 µg/mL) | 8 (≈ 18.2 µg/mL) | 4 (≈ 9.12 µg/mL) | 4 (≈ 9.12 µg/mL) | 2 (≈ 4.56 µg/mL) | MFC ([8]; read-out: MFC C. albicans 2.2086): 32 µM (≈ 72.9 µg/mL); MIC ([8]; read-out: MIC C. albicans 2.2086): 16 µM (≈ 36.5 µg/mL); MFC [11]: 16 µM (≈ 36.5 µg/mL); MIC [11]: 8 µM (≈ 18.2 µg/mL)
